Test results published in patent publication US20190343908A1, “Therapeutic Combination for the Treatment of Cancer” (Nerium Biotechnology Inc., priority 2011, published 2019).

How the values were obtained:
[1] = tested on: PANC-1 pancreatic cancer cell line; experiment: Crystal Violet viability assay, PANC-1; type: cell-based, human; conditions: for ABSORBANCE: 0.1 μg/mL cisplatin; for CVE 24 h / CVE 48 h / CVE 72 h: Run 1 average
Description: (§1) Three different viability assays were chosen to complement each other and yielded results dependent on concentration and cell line: the Methyl Tetrazolium dye assay, the Sulforhodamine B fluorescent dye assay, and the Crystal Violet dye assay.
The Sulforhodamine B and Crystal Violet assays provide information about protein and were used to complement the Methyl-Tetrazolium dye assay. […] It is used for the quantification of cellular proteins of cultured cells. The assay using Crystal Violet, a dye that binds electrostatically to proteins and stains DNA, provides a reliable, simple assay for measuring viability of cells.
(§2) The Methyl Tetrazolium, Sulforhodamine B, and Crystal Violet assays were used to assess cell viabilities. The incubation times were 24 hours, 48 hours, and 72 hours. The Nerium oleander extract Anvirzel™ (a hot water extract of oleander obtained from Salud Integral, Honduras) was tested in concentrations ranging from 0.01 ng/mL to 10 ng/mL.
(§3) Cells were detached by trypsinization (Trypsin-0.25% EDTA, Invitrogen, 25200-072) during the logarithmic phase of culture growth and plated in 96-well plates (18.000 cells/well) (Corning, Costar 359) in a final volume of 200 μl of medium per well. […] The absorbance was measured after 24 hours, 48 hours, and 72 hours of incubation.
For the Crystal Violet assay, the medium was removed from the 96-well plates, the plates rinsed with PBS (Sigma, P3813) and then the cells were […] by the addition of 10% formalin (MERCK, 1.04003.2500) for 20 minutes at RT. Formalin was removed and 0.25% aqueous crystal violet (Sigma, HT901), dissolved in water, was added for 10 minutes at RT. Unbound Crystal Violet was rinsed by washing with water and finally 33% acetic acid was added to dissolve the dye.
(§4) The optical density of each plate was measured on a μQuant spectrophotometer and the data were analyzed with Gen5 software (μQuant Biomolecular Spectrophotometer MQX200 and Gen5™ Microplate Data Collection & Analysis software, BioTek® Instruments. Inc, April 2008). Absorbance was measured at 570 nm for all assays and a second wavelength was measured in order to subtract noise. For the Methyl-Tetrazolium assay this second wavelength was 630 nm and for the Sulforhodamine B and Crystal Violet assays it was 690 nm.

[2] = tested on: 22Rv1 (human prostate cancer); experiment: Methyl-Tetrazolium (MTT) viability assay, 22Rv1; type: cell-based; conditions: for Average absorbance, MTT 24 h / Average absorbance, MTT 48 h / Average absorbance, MTT 72 h: 22Rv1 Run 3
Description: as §1
The Methyl-Tetrazolium dye assay measures the activity of enzymes in mitochondria. The dye precursor is taken up by cells, where it undergoes reduction to the purple formazan. It measures only the mitochondrial activity and, thus, it is not always a reliable indication of whether the cells themselves are alive or dead, since even a recently dead cell has […] enzyme activity in mitochondria. Intracellular glucose concentration, pH, and time before assay all affect the measurements.
as §2, §3
For the Methyl-Tetrazolium assay, the dye (Sigma, M2128; 5 mg/mL, diluted in phosphate-buffered saline) was added to each well and plates were incubated for 3 hours at 37° C. After the end of the incubation period, the medium was discarded and the cells were rinsed with phosphate-buffered saline. Finally, the formazan crystals were dissolved in dimethylsulphoxide (Sigma, D4540).
as §4

N.N.[Cl][Pt][Cl] [cisplatin]
ABSORBANCE ([1]; PANC-1, 48 h): 0.753
ABSORBANCE ([1]; PANC-1, 72 h): 0.872
Average CVE ([1]; PANC-1, Run 2, 24 h, 0.1 μg/ml CDDP): 0.793
Average CVE ([1]; PANC-1, Run 2, 24 h, 1 μg/ml CDDP): 0.456
Average CVE ([1]; PANC-1, Run 2, 24 h, 10 μg/ml CDDP): 0.602
Average CVE ([1]; PANC-1, Run 2, 24 h, 100 μg/ml CDDP): 0.345
Average CVE ([1]; PANC-1, Run 2, 48 h, 0.1 μg/ml CDDP): 0.575
Average CVE ([1]; PANC-1, Run 2, 48 h, 1 μg/ml CDDP): 0.249
Average CVE ([1]; PANC-1, Run 2, 48 h, 10 μg/ml CDDP): 0.33
Average CVE ([1]; PANC-1, Run 2, 48 h, 100 μg/ml CDDP): 0.323
Average CVE ([1]; PANC-1, Run 2, 72 h, 0.1 μg/ml CDDP): 0.839
Average CVE ([1]; PANC-1, Run 2, 72 h, 1 μg/ml CDDP): 0.514
Average CVE ([1]; PANC-1, Run 2, 72 h, 10 μg/ml CDDP): 0.49
Average CVE ([1]; PANC-1, Run 2, 72 h, 100 μg/ml CDDP): 0.385
Average CVE ([1]; PANC-1, Run 3, 24 h, 0.1 μg/ml CDDP): 0.476
Average CVE ([1]; PANC-1, Run 3, 24 h, 1 μg/ml CDDP): 0.457
Average CVE ([1]; PANC-1, Run 3, 24 h, 10 μg/ml CDDP): 0.698
Average CVE ([1]; PANC-1, Run 3, 24 h, 100 μg/ml CDDP): 0.428
Average CVE ([1]; PANC-1, Run 3, 48 h, 0.1 μg/ml CDDP): 0.753
Average CVE ([1]; PANC-1, Run 3, 48 h, 1 μg/ml CDDP): 0.395
Average CVE ([1]; PANC-1, Run 3, 48 h, 10 μg/ml CDDP): 0.218
Average CVE ([1]; PANC-1, Run 3, 48 h, 100 μg/ml CDDP): 0.18
Average CVE ([1]; PANC-1, Run 3, 72 h, 0.1 μg/ml CDDP): 0.872
Average CVE ([1]; PANC-1, Run 3, 72 h, 1 μg/ml CDDP): 0.358
Average CVE ([1]; PANC-1, Run 3, 72 h, 10 μg/ml CDDP): 0.421
Average CVE ([1]; PANC-1, Run 3, 72 h, 100 μg/ml CDDP): 0.253
CVE 24 h ([1]; 0.1 μg/ml CDDP): 0.324
CVE 48 h ([1]; 0.1 μg/ml CDDP): 0.717
CVE 72 h ([1]; 0.1 μg/ml CDDP): 0.676
CVE 24 h ([1]; 1 μg/ml CDDP): 0.125
CVE 48 h ([1]; 1 μg/ml CDDP): 0.429
CVE 72 h ([1]; 1 μg/ml CDDP): 0.262
CVE 24 h ([1]; 10 μg/ml CDDP): 0.191
CVE 48 h ([1]; 10 μg/ml CDDP): 0.466
CVE 72 h ([1]; 10 μg/ml CDDP): 0.337
CVE 24 h ([1]; 100 μg/ml CDDP): 0.153
CVE 48 h ([1]; 100 μg/ml CDDP): 0.381
CVE 72 h ([1]; 100 μg/ml CDDP): 0.28
MTT 24 h Average ([2]; 22Rv1 Run 1, 0.1 μg/ml CDDP): 0.042
MTT 48 h Average ([2]; 22Rv1 Run 1, 0.1 μg/ml CDDP): 0.141
MTT 72 h Average ([2]; 22Rv1 Run 1, 0.1 μg/ml CDDP): 0.168
MTT 24 h Average ([2]; 22Rv1 Run 1, 1 μg/ml CDDP): 0.013
MTT 48 h Average ([2]; 22Rv1 Run 1, 1 μg/ml CDDP): 0.013
MTT 72 h Average ([2]; 22Rv1 Run 1, 1 μg/ml CDDP): 0.015
MTT 24 h Average ([2]; 22Rv1 Run 1, 10 μg/ml CDDP): 0.033
MTT 48 h Average ([2]; 22Rv1 Run 1, 10 μg/ml CDDP): 0.013
MTT 72 h Average ([2]; 22Rv1 Run 1, 10 μg/ml CDDP): 0.01
MTT 24 h Average ([2]; 22Rv1 Run 1, 100 μg/ml CDDP): 0.011
MTT 48 h Average ([2]; 22Rv1 Run 1, 100 μg/ml CDDP): 0.008
MTT 72 h Average ([2]; 22Rv1 Run 1, 100 μg/ml CDDP): 0.009
MTT 24 h Average ([2]; 22Rv1 Run 2, 0.1 μg/ml CDDP): 0.077
MTT 48 h Average ([2]; 22Rv1 Run 2, 0.1 μg/ml CDDP): 0.172
MTT 72 h Average ([2]; 22Rv1 Run 2, 0.1 μg/ml CDDP): 0.29
MTT 24 h Average ([2]; 22Rv1 Run 2, 1 μg/ml CDDP): 0.011
MTT 48 h Average ([2]; 22Rv1 Run 2, 1 μg/ml CDDP): 0.014
MTT 72 h Average ([2]; 22Rv1 Run 2, 1 μg/ml CDDP): 0.016
MTT 24 h Average ([2]; 22Rv1 Run 2, 10 μg/ml CDDP): 0.019
MTT 48 h Average ([2]; 22Rv1 Run 2, 10 μg/ml CDDP): 0.016
MTT 72 h Average ([2]; 22Rv1 Run 2, 10 μg/ml CDDP): 0.013
MTT 24 h Average ([2]; 22Rv1 Run 2, 100 μg/ml CDDP): 0.009
MTT 48 h Average ([2]; 22Rv1 Run 2, 100 μg/ml CDDP): 0.008
MTT 72 h Average ([2]; 22Rv1 Run 2, 100 μg/ml CDDP): 0.008
Average absorbance, MTT 24 h ([2]; 0.1 μg/ml CDDP): 0.08
Average absorbance, MTT 48 h ([2]; 0.1 μg/ml CDDP): 0.135
Average absorbance, MTT 72 h ([2]; 0.1 μg/ml CDDP): 0.128
Average absorbance, MTT 24 h ([2]; 1 μg/ml CDDP): 0.015
Average absorbance, MTT 48 h ([2]; 1 μg/ml CDDP): 0.016
Average absorbance, MTT 72 h ([2]; 1 μg/ml CDDP): 0.015
Average absorbance, MTT 24 h ([2]; 10 μg/ml CDDP): 0.023
Average absorbance, MTT 48 h ([2]; 10 μg/ml CDDP): 0.017
Average absorbance, MTT 72 h ([2]; 10 μg/ml CDDP): 0.013
Average absorbance, MTT 24 h ([2]; 100 μg/ml CDDP): 0.011
Average absorbance, MTT 48 h ([2]; 100 μg/ml CDDP): 0.011
Average absorbance, MTT 72 h ([2]; 100 μg/ml CDDP): 0.011
